Data on five compounds can be found in patent publication US3975538A, “Miticidally active compositions” (priority 1974, dated 1976).

Each structure is given as a SMILES string.

Test [1] deals with citrus red mite, Panonychus citri. Put plainly: Experiment 1 miticidal test (citrus red mite on potted lemon tree). In kind it is in vivo. To be noted: 240 h, larvae and adults, 200 ppm in water, 20 cc spray, 10 days at 28°C, read-out: Evaluation (mortality of mites and eggs). On the procedure:
In this experiment, approximately 50 larvae and adults of the citrus red mite, Panonychus citri were first released on the leaves of a young lemon tree, with about 10 leaves, growing in a pot (9 cm in diameter). […] Two days later, each potted plant was sprayed with 20 cc of one of these preparations with a spray gun (under 1 kg/cm^2 pressure, 80 cm distance from the plant) in a spray chamber. After the spraying, the pots were placed in a air-conditioned greenhouse (28°C) for 10 days, the number of mites and eggs surviving on the leaves counted.

Test [2] concerns two-spotted spider mite, Tetranychus urticae. In words: Experiment 2 miticidal test (two-spotted spider mite on pea seedling). In kind it is in vivo. To be noted: 48 h, female adults, 500 ppm in water, 20 cc spray, 2 days at 28°C, read-out: Evaluation (mortality of mites). As for the experimental part:
(§1) Criteria for evaluating effectiveness:
After spraying the pots were placed in a air-conditioned greenhouse (28°C) for 2 days.

For test [3], the system named is Kanzawa spider mite, Tetranychus kanzawai. Put plainly: Experiment 3 miticidal test (Kanzawa spider mite on pea seedling). In kind it is in vivo. To be noted: female adults, 500 ppm in water, 20 cc spray, three repeats, read-out: Evaluation (mortality of mites).
Text: as §1
In this experiment, one day after approximately 50 female adults of the Kanzawa spider mite, Tetranychus kanzawai, were placed on the leaves of a seedling of the pea plant (5 days after germination), growing in pots (9 cm in diameter), the plant was sprayed with emulsion of the compound of Formula (I), diluted to 500 ppm in water. […] The test was repeated three times.

A further test has as its system eggs of citrus red mite. In words: Experiment 4 ovicidal test (citrus red mite eggs on trifoliate orange). Format: in vivo, Panonychus citri. To be noted: 500 ppm in water, 20 cc spray, 7 days at 28°C, three repeats. As for the experimental part: as §1
In this experiment, 20 female adults of the citrus red mite were released on the leaves of the potted trifoliate orange (15 cm in height). The pots were then placed in a air-conditioned greenhouse (28°C) for 2 days. Then the adults were removed from the plant and the eggs laid on the leaves were subjected to the ovicidal test. The number of the eggs on each plant was counted prior to the chemical application. […] 20 cc of each compound was sprayed on one of the plants. After spraying, the pots were returned to the air-conditioned greenhouse and kept there for 7 days. Then, by microscopic inspection, the numbers of unhatched eggs, the larvae which died after hatching, and the surviving larvae, respectively, on each plant were counted.

The test system of test [4] is citrus red mite which show resistance to citrazon. In words: Experiment 5 test on citrazon-resistant citrus red mite. In kind it is in vivo. The settings on record: Panonychus citri, 48 h, read-out: Death rate. On the procedure: 100 female adults of citrus red mite which show resistance to citrazon were released on the leaves of the potted trifoliate orange (The pot: 9 cm in diameter). 20 cc each of the emulsions 100 prepared in Example 4, of compound No.4 and citrazon (mentioned before) for comparison of different concentrations was sprayed on one of the pots. After spraying the pots were kept in a kasten for 2 days and from the number of the surviving mites the death rates were calculated.

Turning to `CCOC(=NOC(=O)c1ccccc1)c1c(OC)ccc2ccccc12` [Control No. 1, ethyl O-benzoyl-2-methoxy-1-naphthohydroxamate], in test [1], the mortality at 200 ppm is below 49%. For the same compound, the mortality at 500 ppm in test [2] and in test [3] was below 49% each time. Further, the “Evaluation (ovicidal effectiveness)” value in the test on eggs of citrus red mite is listed as “- (49 % or less)”.

For `CCOC(=NOC(=O)c1ccc(C)cc1)c1c(OC)ccc2ccccc12` [Control No. 2, ethyl 0-(4-methylbenzoyl)-2-methoxy-1-naphthohydroxamate], the mortality at 200 ppm in test [1] is below 49%. The mortality at 500 ppm in test [2] and in test [3] was below 49% throughout. The “Evaluation (ovicidal effectiveness)” value in the test with eggs of citrus red mite was “- (49 % or less)”.

On to `CCOC(=NOC(=O)c1ccccc1)c1c(OC)ccc(Cl)c1OC` [Citrazon, ethyl O-benzoyl-3-chloro-2,6-dimethoxybenzohydroxamate], for which, in test [4], the mortality at 12.5 ppm was determined as 19.5%, the mortality at 25 ppm amounted to 25.8%, the mortality at 50 ppm was found to be 40.6% and the mortality at 100 ppm came out at 40.5%. For the same compound, in test [4], the mortality at 200 ppm was 43.5% and the mortality at 400 ppm was found to be 68%.

As to `CCOC(=NOC(=O)SC(C)C)c1c(OC)ccc2ccccc12` [compound 13, ethyl O-isopropylthiocarbonyl-2-methoxy-1-naphthohydroxamate], the mortality at 200 ppm in test [1] came to 100%.

In the case of `CCOC(=O)ON=C(OCC)c1c(OC)ccc2ccccc12` [compound 2, ethyl O-ethoxycarbonyl-2-methoxy-1-naphthohydroxamate], the mortality at 200 ppm in test [1] fell in the range of 90 to 99%. Besides, in the test on eggs of citrus red mite, the “Evaluation (ovicidal effectiveness)” value was “++ (90 - 99 %)”.
